According to US20090124691A1, “INHIBITOR OF INCREASE IN POSTPRANDIAL BLOOD INSULIN LEVEL” (Kao Corporation, priority 2006, published 2009):

Test system: blood insulin level
Experiment: Effect of monoacylglycerol in inhibiting postprandial increase in blood insulin level in mouse (oral emulsion, ELISA, AUC)
Type: in vivo, Male C57BL/6J mice
Details: mice, TAG compared with only glucose, MAG in an amount of 1/10 or 1/5 of that of TAG compared with TAG/MAG0 group
Description: Triolein was employed as a triacylglycerol, and 1-monoolein was employed as a monoacylglycerol.
Male C57BL/6J mice (eight weeks old) were divided into groups (eight mice each). Through a probe, mice of the respective groups were orally administered the following substance: only glucose (2 mg/g-body weight) (Glucose); glucose (2 mg/g-body weight) plus triolein (TAG) (2 mg/g-body weight) emulsified with egg yolk lecithin (0.02 mg/g-body weight) (TAG/MAGO); TAG/MAGO supplemented with 1-monoolein (MAG) of 0.08, 0.2 and 0.4 mg/g-body weight, respectively (TAG/MAG1, TAG/MAG2 and TAG/MAG3). […] Blood was collected from the orbital vein of each mouse over time until 30 minutes after oral administration, and blood insulin level was measured, followed by calculation of the area under the curve (AUC) of a graph. Blood insulin level was measured through ELISA (insulin assay kit, product of Morinaga Institute of Biological Science, Inc.).

For CCCCCCCC/C=C\CCCCCCCC(=O)OCC(O)CO (stereo not shown) [MAG, 1-monoolein], the “postprandial blood insulin level (amount of postprandial insulin secretion), result in words” value was “decreased postprandial blood insulin level”.
